In brackets after ≈: the same amount, converted by molar mass. Several values for one entry are separate records, joined by “and”; a condition that tells them apart may be missing. Identical values can stand only once.

The first assay has as its system Aspergillus fumigatus (strain n°AF 980003). In words: Antifungal activity on a clinical strain of Aspergillus fumigatus (Alamar Blue microplate test). In kind it is cell-based. To be noted: strain AF980003; Alamar Blue.
In the case of `Fc1ccc(Cn2cc(Cn3ccnc3)c3ccccc32)c(F)c1` [compound 6], the “CMI or CI80 Aspergillus fumigatus (AF980003)” value was 60 ± 2 μM and 19.4 ± 2 μg/ml.

Turning to `Clc1ccc(Cn2cc(Cn3ccnc3)c3cc(Cl)ccc32)cc1` [compound 14], the “CMI or CI80 Aspergillus fumigatus (AF980003)” value was 71 ± 3 μM and 25 ± 1 μg/ml.

`Fc1ccc2c(c1)c(Cn1ccnc1)cn2Cc1ccc(Cl)cc1` [compound 15]: the “CMI or CI80 Aspergillus fumigatus (AF980003)” value was 61 ± 3 μM and 20.73 ± 3 μg/ml.

`CCN1CCc2cccc(C(c3ccc(F)cc3)n3ccnc3)c21` (stereo not drawn) [compound 50]: the “CMI or CI80 Aspergillus fumigatus (AF980003)” value was 5.4 ± 0.2 μM and 1.7 ± 0.1 μg/ml.

The assay is the same for the next values; noted with them: strain AF980003; Alamar Blue; read-out: CMI or CI80 Aspergillus fumigatus (AF980003).
For `Fc1ccccc1Cn1cc(Cn2ccnc2)c2cc(Br)ccc21` [compound 11], the MIC is on record as >100 µM.

For the molecule `Fc1ccc(Cn2cc(Cn3ccnc3)c3cc(Br)ccc32)cc1` [compound 12], the MIC is listed as >100 µM.

Regarding `Fc1ccccc1Cn1cc(Cn2cncn2)c2cc(Br)ccc21` [compound 24], the MIC was >100 µM.

`Fc1ccc(Cn2cc(Cn3cncn3)c3cc(Br)ccc32)cc1` [compound 25]: the MIC is listed as >100 µM.

Still in this assay, the particulars now being: strain AF980003; read-out: CMI or CI80 Aspergillus fumigatus (AF980003).
`CCn1c(C(c2ccc(Cl)cc2Cl)n2ccnc2)c(C)c2cc(Br)ccc21` (stereo not drawn) [compound 34]: the MIC is >100 µM.

For `Clc1ccc(Cn2cc(CCn3ccnc3)c3ccccc32)cc1` [compound 59], the MIC was >100 µM.

For the molecule `Clc1ccc(Cn2cc(CCCn3ccnc3)c3ccccc32)cc1` [compound 60], the MIC was >100 µM.

As to `Clc1ccccc1Cn1cc(C2(Cn3ccnc3)CCCC2)c2ccccc21` [compound 62], the MIC is >100 µM.

The same assay, now with this note: summary of Tables 27 to 40.
As to `Fc1ccc(Cn2cc(Cn3ccnc3)c3ccccc32)c(F)c1` [compound 6], the “activity against Aspergillus fumigatus (in words)” value is “strong activity”.

For `Fc1ccc2c(c1)c(Cn1ccnc1)cn2Cc1ccc(Cl)cc1` [compound 15], the “activity against Aspergillus fumigatus (in words)” value was “strong activity”.

In the case of `CCN1CCc2cccc(C(c3ccc(F)cc3)n3ccnc3)c21` (stereo not drawn) [compound 50], the “activity against Aspergillus fumigatus (in words)” value is recorded as “most active”.

The next assay has as its system promastigote stage of Leishmania mexicana. In words: Antiparasitic activity on the promastigote form of Leishmania (MTT). In kind it is cell-based.
Conditions: not given
For the molecule `Fc1ccccc1Cn1cc(Cn2ccnc2)c2cc(Br)ccc21` [compound 11], the “CI50 Leishmania mexicana Promastigotes” value came out at 18.3 ± 0.6 µg/mL (≈ 47.6 µM).

Regarding `Fc1ccc(Cn2cc(Cn3ccnc3)c3cc(Br)ccc32)cc1` [compound 12], the “CI50 Leishmania mexicana Promastigotes” value amounted to 7.9 ± 0.9 µg/mL (≈ 20.6 µM).

For `Clc1ccc(Cn2cc(Cn3ccnc3)c3cc(Cl)ccc32)cc1` [compound 14], the “CI50 Leishmania mexicana Promastigotes” value is reported as “non linear”.

`Fc1ccccc1Cn1cc(Cn2cncn2)c2cc(Br)ccc21` [compound 24]: the “CI50 Leishmania mexicana Promastigotes” value turned out to be 30.74 µg/mL (≈ 79.8 µM).

As for `Fc1ccc(Cn2cc(Cn3cncn3)c3cc(Br)ccc32)cc1` [compound 25], the “CI50 Leishmania mexicana Promastigotes” value is 19.38 µg/mL (≈ 50.3 µM).

Regarding `CCn1c(C(c2ccc(Cl)cc2Cl)n2ccnc2)c(C)c2cc(Br)ccc21` (stereo not drawn) [compound 34], the “CI50 Leishmania mexicana Promastigotes” value was determined as 1.99 ± 0.04 µg/mL (≈ 4.3 µM) and the “activity against Leishmania mexicana (in words)” value is on record as “strong activity”.

Consider `CCN1CCc2cccc(C(c3ccc(F)cc3)n3ccnc3)c21` (stereo not drawn) [compound 50], for which the “activity against Leishmania mexicana (in words)” value was “most active”.

Take `Clc1ccc(Cn2cc(CCn3ccnc3)c3ccccc32)cc1` [compound 59]: the “CI50 Leishmania mexicana Promastigotes” value came to 15.6 µg/mL (≈ 46.5 µM).

For `Clc1ccc(Cn2cc(CCCn3ccnc3)c3ccccc32)cc1` [compound 60], the “CI50 Leishmania mexicana Promastigotes” value was found to be 26.1 µg/mL (≈ 74.6 µM).

`Clc1ccccc1Cn1cc(C2(Cn3ccnc3)CCCC2)c2ccccc21` [compound 62]: the “CI50 Leishmania mexicana Promastigotes” value was 28.38 µg/mL (≈ 72.8 µM).

Staying with this assay, now noted: promastigotes; 36 h at 26° C., MTT.
Take `Fc1ccc(Cn2cc(Cn3ccnc3)c3ccccc32)c(F)c1` [compound 6]: the “CI50 Leishmania mexicana Promastigotes” value is 6 ± 0.5 µg/mL (≈ 18.6 µM).

Regarding `Fc1ccc2c(c1)c(Cn1ccnc1)cn2Cc1ccc(Cl)cc1` [compound 15], the “CI50 Leishmania mexicana Promastigotes” value worked out at 5.4 ± 1.6 µg/mL (≈ 15.9 µM).

As for `CCN1CCc2cccc(C(c3ccc(F)cc3)n3ccnc3)c21` (stereo not drawn) [compound 50], the “CI50 Leishmania mexicana Promastigotes” value came to 0.24 ± 0.017 µg/mL (≈ 0.747 µM).

Staying with this assay, now noted: promastigotes; 36 h at 26° C., MTT; read-out: CI50 Leishmania mexicana Promastigotes.
As for `Fc1ccc(Cn2cc(Cn3ccnc3)c3ccccc32)c(F)c1` [compound 6], the IC50 was 18.5 ± 1.8 µM.

For `Fc1ccc2c(c1)c(Cn1ccnc1)cn2Cc1ccc(Cl)cc1` [compound 15], the IC50 turned out to be 15.9 ± 5 µM.

With `CCN1CCc2cccc(C(c3ccc(F)cc3)n3ccnc3)c21` (stereo not drawn) [compound 50], the IC50 stood at 0.74 ± 0.017 µM.

The same assay, now with this note: read-out: CI50 Leishmania mexicana Promastigotes.
With `Fc1ccccc1Cn1cc(Cn2ccnc2)c2cc(Br)ccc21` [compound 11], the IC50 is 47.7 ± 1.6 µM.

Turning to `Fc1ccc(Cn2cc(Cn3ccnc3)c3cc(Br)ccc32)cc1` [compound 12], the IC50 came to 20.6 ± 2.4 µM.

Take `Fc1ccccc1Cn1cc(Cn2cncn2)c2cc(Br)ccc21` [compound 24]: the IC50 is 79.8 µM.

In the case of `Fc1ccc(Cn2cc(Cn3cncn3)c3cc(Br)ccc32)cc1` [compound 25], the IC50 was determined as 50.3 µM.

Turning to `CCn1c(C(c2ccc(Cl)cc2Cl)n2ccnc2)c(C)c2cc(Br)ccc21` (stereo not drawn) [compound 34], the IC50 stood at 4.28 ± 0.1 µM.

For `Clc1ccc(Cn2cc(CCn3ccnc3)c3ccccc32)cc1` [compound 59], the IC50 is 87 µM.

On to `Clc1ccc(Cn2cc(CCCn3ccnc3)c3ccccc32)cc1` [compound 60], for which the IC50 is 74.7 µM.

Turning to `Clc1ccccc1Cn1cc(C2(Cn3ccnc3)CCCC2)c2ccccc21` [compound 62], the IC50 amounted to 72.8 µM.

Another assay concerns Candida albicans (strain n° CA980001). Nature of the assay: Antifungal activity on a clinical strain of Candida albicans (MTT colorimetric microplate test). In kind it is cell-based. To be noted: strain CA980001.
As for `CCn1c(C(c2ccc(Cl)cc2Cl)n2ccnc2)c(C)c2cc(Br)ccc21` (stereo not drawn) [compound 34], the “CMI or CI80 Candida albicans (CA980001)” value was 48 ± 0.5 μM and 22 ± 0.5 μg/mL.

The assay is the same for the next values; noted with them: strain CA980001; 24 h at 37° C., MTT.
On to `Fc1ccc(Cn2cc(Cn3ccnc3)c3ccccc32)c(F)c1` [compound 6], for which the “CMI or CI80 Candida albicans (CA980001)” value is 48 ± 4 μM and 16 ± 2 μg/ml.

`Clc1ccc(Cn2cc(Cn3ccnc3)c3cc(Cl)ccc32)cc1` [compound 14]: the “CMI or CI80 Candida albicans (CA980001)” value turned out to be 30 µg/mL.

For `Fc1ccc2c(c1)c(Cn1ccnc1)cn2Cc1ccc(Cl)cc1` [compound 15], the “CMI or CI80 Candida albicans (CA980001)” value was 21 ± 1 μM and 7 ± 1 μg/ml.

As for `CCN1CCc2cccc(C(c3ccc(F)cc3)n3ccnc3)c21` (stereo not drawn) [compound 50], the “CMI or CI80 Candida albicans (CA980001)” value is 0.67 ± 0.01 μM and 0.22 ± 0.01 μg/ml.

Staying with this assay, now noted: strain CA980001; 24 h at 37° C., MTT; read-out: CMI or CI80 Candida albicans (CA980001).
As for `Fc1ccccc1Cn1cc(Cn2ccnc2)c2cc(Br)ccc21` [compound 11], the MIC was >100 µM.

Turning to `Fc1ccc(Cn2cc(Cn3ccnc3)c3cc(Br)ccc32)cc1` [compound 12], the MIC is >100 µM.

With `Clc1ccc(Cn2cc(Cn3ccnc3)c3cc(Cl)ccc32)cc1` [compound 14], the MIC stood at 85 µM (≈ 30.3 µg/mL).

`Fc1ccccc1Cn1cc(Cn2cncn2)c2cc(Br)ccc21` [compound 24]: the MIC is >100 µM.

With `Fc1ccc(Cn2cc(Cn3cncn3)c3cc(Br)ccc32)cc1` [compound 25], the MIC is given as >100 µM.

The assay is the same for the next values; noted with them: strain CA980001; read-out: CMI or CI80 Candida albicans (CA980001).
Turning to `Clc1ccc(Cn2cc(CCn3ccnc3)c3ccccc32)cc1` [compound 59], the MIC is given as >100 µM.

Take `Clc1ccc(Cn2cc(CCCn3ccnc3)c3ccccc32)cc1` [compound 60]: the MIC is listed as >100 µM.

Regarding `Clc1ccccc1Cn1cc(C2(Cn3ccnc3)CCCC2)c2ccccc21` [compound 62], the MIC is given as >100 µM.

Staying with this assay, now noted: summary of Tables 27 to 40.
In the case of `CCN1CCc2cccc(C(c3ccc(F)cc3)n3ccnc3)c21` (stereo not drawn) [compound 50], the “activity of inhibition of Candida albicans (in words)” value is “most active”.

These data come from patent US20040067998A1, “Antifungal and/or antiparasitic pharmaceutical composition and novel indole derivatives as active principle of such a composition” (priority 2003, published 2004).
